The results in this text go back to patent publication US20260007680A1, “Compounds and Their Use as PDE4 Activators” (Mironid Limited, priority 2022, published 2026).

For this assay, the system named is m-IMCD3 cells. Briefly: Inhibition of PGE2-stimulated in vitro cyst formation in 3D culture of m-IMCD3 cells (Experiment 4). The class given is cell-based, mouse. The conditions noted are these: Mus musculus, mIMCD3, 144 h, 10 μM test compound, mean cyst area compared to 100% for (DMSO + PGE2) and 0% for DMSO control, read-out: % Cyst area* after incubation with 10 μM test compound. On the procedure:
HEK 293 and MDCK cells (Public Health England, Cell Culture Collections) were maintained in Dulbecco's Modified Eagle's Medium (DMEM) supplemented with 10% (v/v) fetal bovine serum (FBS) (Seralab), 2 mM L-glutamine and 100 U/ml penicillin streptomycin cocktail (ThermoFisher); termed complete media. Clonal HEK 293 cell lines were maintained in complete media supplemented with 0.6 mg/mL G418 (Enzo Life Sciences). Mouse inner medullary collecting duct (m-IMCD3) cells [American Type Culture Collection (ATCC)] were maintained in media consisting of DMEM/Hams F-12 50/50 Mix (DMEM F12; Corning) supplemented with penicillin streptomycin cocktail (100 U/ml) and FBS (10% v/v) (DMEM F12-10% FBS).
The mouse Inner Medullary Collecting Duct cell line (m-IMCD3) spontaneously forms cystic spheroids in 3D culture with a Type 1 collagen/Matrigel extracellular matrix. This process can be stimulated with agents which raise intracellular cAMP and is used as an in vitro model for the formation of cystic structures in the kidneys of patients with ADPKD.
Rat Collagen I (Fisher Scientific) is prepared on ice by neutralising with 1 M NaOH and diluting with a 2×volume of DMEM/F12+10% FBS. This is mixed 1:1.1 with ice cold Matrigel (Corning) for coating plates (coating mix), and 1:0.93 with Matrigel for cell plating (plating mix).
The assay is conducted in the wells of a 96-well plate culture dish using a total volume of 130 μL of collagen/Matrigel/DMEM F12-10% FBS suspension in growth media for each matrix plug per individual well. Initially, 30 μL of collagen/Matrigel/DMEM F12-10% FBS (coating mix) is added into the well of a 96 well plate and the collagen is set to a gel by incubating at 37° C. for at least 15 minutes. A second layer of 100 μL collagen/Matrigel suspension (plating mix) containing m-IMCD3 cells (2.75×10^6 m-IMCD3 cells per 96-well plate) is layered over the coating mix and the collagen/Matrigel/cell mix again set to a gel by incubating at 37° C. Cell cultures are maintained at 37° C. in an atmosphere of 5% CO2, 95% air.
Between 18 and 24 h after plating, test compound(s) as DMSO stock solutions [0.1% (v/v) final DMSO concentration] and PGE2 (100 nM final concentration) in DMEM F12-10% FBS are added in quadruplicate wells per condition. Media, together with the test compound and PGE2 are replenished after 2 or 3 days. After 6 days of culture z stack images of the wells are captured using the Nikon Eclipse Ti2-E microscope. Nikon General Analysis software is used to measure the following parameters in each well: the mean cyst area, the number of cysts, and the total cyst area.
PDE4 long form activators inhibited in vitro cyst formation in m-IMCD3 cells. Data are shown in FIG. 2 and Table 4 as mean cyst area (%), compared to 100% for (DMSO+PGE2) and 0% for DMSO control.
For `O=C(NC1CCCC1)c1cnc2cc(N3C4CCC3CNC4)nn2c1` [Example 80, 2-(3,8-diazabicyclo[3.2.1]octan-8-yl)-N-cyclopentylpyrazolo[1,5-a]pyrimidine-6-carboxamide], the activity at 10 µM turned out to be 14%. For `CN1CC2CCC(C1)N2c1cc2ncc(C(=O)NC3CCCC3)cn2n1` [Example 81, N-cyclopentyl-2-(3-methyl-3,8-diazabicyclo[3.2.1]octan-8-yl)pvrazolo[1,5-a]pyrimidine-6-carboxamide], the activity at 10 µM is -3%. To `O=C(N[C@H]1CCOc2ccccc21)c1cnc2cc(C3CCNCC3)nn2c1` [Example 82, (S)—N-(chroman-4-yl)-2-(piperidin-4-yl)pyrazolo[1,5-a]pyrimidine-6-carboxamide] belongs 3%; to `CCN1CCC(c2cc3ncc(C(=O)N[C@H]4CCOc5ccccc54)cn3n2)CC1` [Example 84, (S)—N-(chroman-4-yl)-2-(1-ethylpiperidin-4-yl)pyrazolo[1,5-a]pyrimidine-6-carboxamide], 7%; to `CN1CCC(c2cc3ncc(C(=O)NC4CCCCC4)cn3n2)CC1` [Example 86, N-cyclohexyl-2-(1-methylpiperidin-4-yl)pyrazolo[1,5-a]pyrimidine-6-carboxamide], 7%.

As to `CN1CCC(c2cc3ncc(C(=O)N[C@H]4CCOc5ccccc54)cn3n2)CC1` [Example 88, (S)—N-(chroman-4-yl)-2-(1-methylpiperidin-4-yl)pyrazolo[1,5-a]pyrimidine-6-carboxamide], the activity at 10 µM came out at 15%. For `O=C(NCc1ccc(F)cc1)c1cnc2cc(C3CCNCC3)nn2c1` [Example 89, N-(4-fluorobenzyl)-2-(piperidin-4-yl)pyrazolo[1,5-a]pyrimidine-6-carboxamide], the activity at 10 µM is -3%. Take `Cc1c(C(=O)NC2CCC(F)(F)CC2)cnc2cc(C3CCNCC3)nn12` [Example 91, N-(4,4-difluorocyclohexyl)-7-methyl-2-(piperidin-4-yl)pyrazolo[1,5-a]pyrimidine-6-carboxamide]: the activity at 10 µM is 5%. For `CCN1CCC(c2cc3ncc(C(=O)NC4CCC(F)(F)CC4)c(C)n3n2)CC1` [Example 94, N-(4,4-difluorocyclohexyl)-2-(1-ethylpiperidin-4-yl)-7-methylpyrazolo[1,5-a]pyrimidine-6-carboxamide], the activity at 10 µM was 13%. To `Cc1c(C(=O)N[C@H]2CCOc3ccccc32)cnc2cc(C3CCN(C)CC3)nn12` [Example 95, N-[(4S)-3,4-dihydro-2H-1-benzopyran-4-yl]-7-methyl-2-(1-methylpiperidin-4-yl)pyrazolo[1,5-a]pyrimidine-6-carboxamide] belongs 13%.

`Cc1c(C(=O)NC2CCC(F)(F)CC2)cnc2cc(C3CCN(C)CC3)nn12` [Example 96, N-(4,4-difluorocyclohexyl)-7-methyl-2-(1-methylpiperidin-4-yl)pyrazolo[1,5-a]pyrimidine-6-carboxamide]: the activity at 10 µM stood at 11%. For `CN1CCC(c2nc3cc(C(=O)NC4CCCC4)ccc3o2)CC1` [Example 98, N-cyclopentyl-2-(1-methylpiperidin-4-yl)benzo[d]oxazole-5-carboxamide] the value was -3%; for `O=C(NC1CCCC1)c1ccc2oc(N3CCNCC3)nc2c1` [Example 101, N-cyclopentyl-2-(piperazin-1-yl)benzo[d]oxazole-5-carboxamide], 21%; for `CCN1CCN(c2nc3cc(C(=O)N[C@H]4CCOc5ccccc54)ccc3o2)CC1` [Example 102, (S)—N-(chroman-4-yl)-2-(4-ethylpiperazin-1-yl)benzo[d]oxazole-5-carboxamide], 8%. For the compound `CCN1CCN(c2nc3cc(C(=O)NC4CCCC4)ccc3o2)CC1` [Example 103, N-cyclopentyl-2-(4-ethylpiperazin-1-yl)benzo[d]oxazole-5-carboxamide], the activity at 10 µM is -1%. To `O=C(N[C@H]1CCOc2ccccc21)c1ccc2oc(N3CCN(CCO)CC3)nc2c1` [Example 106, (S)—N-(chroman-4-yl)-2-(4-(2-hydroxyethyl)piperazin-1-yl)benzo[d]oxazole-5-carboxamide] belongs -3%; to `CCN1CCN(c2nc3ccc(C(=O)NC4CCCC4)cc3o2)CC1` [Example 108, N-cyclopentyl-2-(4-ethylpiperazin-1-yl)benzo[d]oxazole-6-carboxamide], 24%; to `O=C(NC1CCC(F)(F)CC1)c1ccc2nc(N3C4CCC3CNC4)sc2n1` [Example 116, 2-(3,8-diazabicyclo[3.2.1]octan-8-yl)-N-(4,4-difluorocyclohexyl)thiazolo[5,4-b]pyridine-5-carboxamide], -1%. Take `O=C(NC1CCC(F)(F)CC1)c1cc2sc(N3C4CCC3CNC4)nc2cn1` [Example 120, 2-(3,8-diazabicyclo[3.2.1]octan-8-yl)-N-(4,4-difluorocyclohexyl)thiazolo[4,5-c]pyridine-6-carboxamide]: the activity at 10 µM was 29%. For `O=C(NC1CCCC1)c1cnc2cc(N3C4CCC3CNC4)sc2c1` [Example 121, 2-(3,8-diazabicyclo[3.2.1]octan-8-yl)-N-cyclopentylthieno[3,2-b]pyridine-6-carboxamide] the value was 3%.
